ChEMBL document CHEMBL1909046, “DrugMatrix in vitro pharmacology data”

How the values were obtained:
Cytochrome P450 3A4 = Cytochrome P450 3A4 (Homo sapiens, UniProt P08684); details: bti-tn-5b1-4
Cytochrome P450 1A2 = target: T1, Cytochrome P450 1A2 (Homo sapiens, UniProt P05177); details: bti-tn-5b1-4
T1 sequence (P05177 whole entry): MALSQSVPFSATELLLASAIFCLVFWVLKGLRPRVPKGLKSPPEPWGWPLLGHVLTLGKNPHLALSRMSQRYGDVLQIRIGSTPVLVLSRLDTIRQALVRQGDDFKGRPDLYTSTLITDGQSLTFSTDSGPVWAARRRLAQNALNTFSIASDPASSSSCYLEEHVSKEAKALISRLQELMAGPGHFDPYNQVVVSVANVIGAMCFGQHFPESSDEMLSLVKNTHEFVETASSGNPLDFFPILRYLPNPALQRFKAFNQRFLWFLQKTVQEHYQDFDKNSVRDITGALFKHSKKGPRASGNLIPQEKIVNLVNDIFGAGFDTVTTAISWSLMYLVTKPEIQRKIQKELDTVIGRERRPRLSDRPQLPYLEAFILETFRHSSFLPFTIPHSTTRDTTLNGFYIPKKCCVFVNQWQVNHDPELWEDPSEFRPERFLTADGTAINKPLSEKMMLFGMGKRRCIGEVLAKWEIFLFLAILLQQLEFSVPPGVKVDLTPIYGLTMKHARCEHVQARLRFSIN

[1] = target: Voltage-gated inwardly rectifying potassium channel KCNH2 (Homo sapiens, UniProt Q12809); details: hek293
Sequence of Voltage-gated inwardly rectifying potassium channel KCNH2 (Q12809 whole entry): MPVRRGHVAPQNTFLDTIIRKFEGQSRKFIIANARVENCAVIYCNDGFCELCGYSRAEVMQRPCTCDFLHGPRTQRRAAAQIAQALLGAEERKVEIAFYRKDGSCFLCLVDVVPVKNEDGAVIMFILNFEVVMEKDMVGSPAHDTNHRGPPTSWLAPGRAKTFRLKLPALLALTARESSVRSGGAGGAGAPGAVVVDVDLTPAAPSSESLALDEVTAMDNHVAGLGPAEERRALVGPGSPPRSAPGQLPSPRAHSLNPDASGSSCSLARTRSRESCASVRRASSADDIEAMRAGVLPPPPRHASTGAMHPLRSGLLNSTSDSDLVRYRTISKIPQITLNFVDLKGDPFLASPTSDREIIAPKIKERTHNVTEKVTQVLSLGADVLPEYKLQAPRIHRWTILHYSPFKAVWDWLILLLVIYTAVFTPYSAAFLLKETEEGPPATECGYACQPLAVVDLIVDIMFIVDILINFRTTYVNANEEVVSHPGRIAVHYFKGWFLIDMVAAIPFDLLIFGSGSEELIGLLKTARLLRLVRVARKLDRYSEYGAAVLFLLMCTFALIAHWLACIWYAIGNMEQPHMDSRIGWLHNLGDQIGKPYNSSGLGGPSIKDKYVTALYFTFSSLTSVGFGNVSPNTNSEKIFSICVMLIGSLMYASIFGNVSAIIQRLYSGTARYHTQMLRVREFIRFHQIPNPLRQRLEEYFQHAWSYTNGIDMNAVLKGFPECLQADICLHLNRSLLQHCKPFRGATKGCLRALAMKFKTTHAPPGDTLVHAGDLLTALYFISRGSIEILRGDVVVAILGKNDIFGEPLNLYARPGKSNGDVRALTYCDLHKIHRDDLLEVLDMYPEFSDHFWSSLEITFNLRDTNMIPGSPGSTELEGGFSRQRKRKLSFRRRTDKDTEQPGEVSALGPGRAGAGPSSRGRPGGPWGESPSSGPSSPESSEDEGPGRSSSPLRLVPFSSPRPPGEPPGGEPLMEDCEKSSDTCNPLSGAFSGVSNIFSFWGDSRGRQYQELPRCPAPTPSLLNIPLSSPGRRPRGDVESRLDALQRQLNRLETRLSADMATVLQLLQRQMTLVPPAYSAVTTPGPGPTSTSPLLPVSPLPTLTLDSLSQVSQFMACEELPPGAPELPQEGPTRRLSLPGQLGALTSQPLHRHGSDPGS

Cytochrome P450 2C9 = Cytochrome P450 2C9 (Homo sapiens, UniProt P11712); details: bti-tn-5b1-4
Sequence of Cytochrome P450 2C9 (P11712 whole entry): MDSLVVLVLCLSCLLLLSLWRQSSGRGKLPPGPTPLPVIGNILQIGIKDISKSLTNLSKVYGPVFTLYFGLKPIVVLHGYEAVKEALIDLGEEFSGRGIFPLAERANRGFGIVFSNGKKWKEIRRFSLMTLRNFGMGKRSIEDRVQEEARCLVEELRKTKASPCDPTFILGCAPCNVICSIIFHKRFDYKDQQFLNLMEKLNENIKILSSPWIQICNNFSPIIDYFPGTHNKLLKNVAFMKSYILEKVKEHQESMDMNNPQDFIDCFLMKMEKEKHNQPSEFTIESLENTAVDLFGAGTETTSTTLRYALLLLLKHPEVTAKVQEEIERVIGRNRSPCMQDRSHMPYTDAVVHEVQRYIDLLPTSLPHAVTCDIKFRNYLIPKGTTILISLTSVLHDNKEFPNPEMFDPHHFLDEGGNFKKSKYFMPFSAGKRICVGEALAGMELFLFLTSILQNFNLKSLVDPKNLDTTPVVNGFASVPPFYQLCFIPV

Cytochrome P450 2D6 = Cytochrome P450 2D6 (Homo sapiens, UniProt P10635); details: bti-tn-5b1-4
Sequence of Cytochrome P450 2D6 (P10635 whole entry): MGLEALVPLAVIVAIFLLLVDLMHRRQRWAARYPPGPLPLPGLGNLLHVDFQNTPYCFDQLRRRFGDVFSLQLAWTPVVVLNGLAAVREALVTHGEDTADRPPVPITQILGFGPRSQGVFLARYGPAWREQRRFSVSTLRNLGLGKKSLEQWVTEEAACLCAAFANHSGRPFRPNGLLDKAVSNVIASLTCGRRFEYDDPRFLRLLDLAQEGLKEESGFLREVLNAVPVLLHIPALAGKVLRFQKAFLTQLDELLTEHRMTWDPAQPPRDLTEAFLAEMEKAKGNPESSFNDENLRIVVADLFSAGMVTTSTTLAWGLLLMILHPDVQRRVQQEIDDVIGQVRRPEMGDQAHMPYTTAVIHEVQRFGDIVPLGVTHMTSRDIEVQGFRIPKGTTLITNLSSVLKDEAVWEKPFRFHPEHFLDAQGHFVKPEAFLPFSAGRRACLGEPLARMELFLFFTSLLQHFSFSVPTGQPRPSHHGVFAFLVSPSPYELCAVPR

Cytochrome P450 2C19 = Cytochrome P450 2C19 (Homo sapiens, UniProt P33261); details: bti-tn-5b1-4
Sequence of Cytochrome P450 2C19 (P33261 whole entry): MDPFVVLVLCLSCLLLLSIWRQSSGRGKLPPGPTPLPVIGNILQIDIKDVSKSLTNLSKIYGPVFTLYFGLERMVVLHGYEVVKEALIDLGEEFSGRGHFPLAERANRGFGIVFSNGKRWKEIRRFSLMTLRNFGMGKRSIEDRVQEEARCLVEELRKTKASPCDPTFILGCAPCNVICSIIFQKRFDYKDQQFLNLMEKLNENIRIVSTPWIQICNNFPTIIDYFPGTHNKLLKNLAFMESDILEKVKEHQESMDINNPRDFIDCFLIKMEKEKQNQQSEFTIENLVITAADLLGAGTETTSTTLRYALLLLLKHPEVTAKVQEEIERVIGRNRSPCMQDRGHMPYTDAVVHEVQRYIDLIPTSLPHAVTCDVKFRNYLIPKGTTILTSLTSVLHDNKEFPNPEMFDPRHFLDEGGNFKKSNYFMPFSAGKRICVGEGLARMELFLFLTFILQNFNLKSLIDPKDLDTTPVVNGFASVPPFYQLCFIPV

Cytochrome P450 2A6 = target: T2, Cytochrome P450 2A6 (Homo sapiens, UniProt P11509); details: bti-tn-5b1-4
T2 sequence (P11509 whole entry): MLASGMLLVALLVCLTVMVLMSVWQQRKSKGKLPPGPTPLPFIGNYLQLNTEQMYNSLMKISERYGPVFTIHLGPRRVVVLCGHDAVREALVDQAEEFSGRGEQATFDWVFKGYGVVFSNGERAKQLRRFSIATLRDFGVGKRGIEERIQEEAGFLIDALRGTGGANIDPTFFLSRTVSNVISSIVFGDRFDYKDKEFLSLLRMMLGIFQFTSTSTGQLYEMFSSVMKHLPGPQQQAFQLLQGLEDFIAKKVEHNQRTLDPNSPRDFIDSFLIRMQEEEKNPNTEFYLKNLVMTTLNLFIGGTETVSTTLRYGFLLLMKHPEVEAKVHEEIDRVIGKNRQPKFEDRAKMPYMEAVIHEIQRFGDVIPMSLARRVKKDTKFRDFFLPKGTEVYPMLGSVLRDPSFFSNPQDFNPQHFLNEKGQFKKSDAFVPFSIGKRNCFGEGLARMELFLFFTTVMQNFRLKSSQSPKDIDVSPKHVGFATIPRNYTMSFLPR

Cytochrome P450 2E1 = Cytochrome P450 2E1 (Homo sapiens, UniProt P05181); details: bti-tn-5b1-4
Sequence of Cytochrome P450 2E1 (P05181 whole entry): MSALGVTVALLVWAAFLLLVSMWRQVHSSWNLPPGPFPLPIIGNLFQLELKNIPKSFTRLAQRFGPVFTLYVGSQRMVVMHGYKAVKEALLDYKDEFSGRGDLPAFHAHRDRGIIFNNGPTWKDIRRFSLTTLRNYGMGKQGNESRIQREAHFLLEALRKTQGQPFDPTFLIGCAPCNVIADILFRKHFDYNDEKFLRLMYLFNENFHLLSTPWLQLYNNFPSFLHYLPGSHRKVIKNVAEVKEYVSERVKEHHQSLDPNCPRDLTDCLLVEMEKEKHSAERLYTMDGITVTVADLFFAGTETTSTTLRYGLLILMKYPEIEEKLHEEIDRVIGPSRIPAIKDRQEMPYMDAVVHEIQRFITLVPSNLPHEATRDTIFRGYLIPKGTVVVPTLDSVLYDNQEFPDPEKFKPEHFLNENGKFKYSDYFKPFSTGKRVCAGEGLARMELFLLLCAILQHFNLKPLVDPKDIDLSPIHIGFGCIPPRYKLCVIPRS
Also: in other assays of this panel Not Active means under 50% inhibition at 10 µM.

Sequence of Cytochrome P450 3A4 (P08684 whole entry): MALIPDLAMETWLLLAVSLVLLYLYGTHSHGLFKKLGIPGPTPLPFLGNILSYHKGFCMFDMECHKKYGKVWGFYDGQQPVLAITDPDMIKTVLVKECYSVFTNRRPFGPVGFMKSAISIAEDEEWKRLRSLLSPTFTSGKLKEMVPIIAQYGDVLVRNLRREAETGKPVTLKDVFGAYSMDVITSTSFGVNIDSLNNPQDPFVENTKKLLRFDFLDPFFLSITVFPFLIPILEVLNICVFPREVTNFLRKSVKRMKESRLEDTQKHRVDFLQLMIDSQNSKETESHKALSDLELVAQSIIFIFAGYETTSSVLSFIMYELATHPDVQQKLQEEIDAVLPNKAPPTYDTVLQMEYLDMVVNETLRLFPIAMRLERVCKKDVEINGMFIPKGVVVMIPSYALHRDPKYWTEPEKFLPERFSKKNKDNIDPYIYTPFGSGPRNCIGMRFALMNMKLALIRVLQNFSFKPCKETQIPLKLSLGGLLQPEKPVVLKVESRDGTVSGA

IC50 (Cytochrome P450 3A4): Not Active
Ki (Cytochrome P450 3A4): Not Active
IC50 (Cytochrome P450 1A2): Not Active
Ki (Cytochrome P450 1A2): Not Active
IC50 (Cytochrome P450 2C9): Not Active
Ki (Cytochrome P450 2C9): Not Active
IC50 (Cytochrome P450 2D6): Not Active
Ki (Cytochrome P450 2D6): Not Active
IC50 (Cytochrome P450 2C19): Not Active
Ki (Cytochrome P450 2C19): Not Active
IC50 (Cytochrome P450 2A6): Not Active
Ki (Cytochrome P450 2A6): Not Active
IC50 (Cytochrome P450 2E1): Not Active
Ki (Cytochrome P450 2E1): Not Active
Compound: CC=Cc1ccc(O)c(OC)c1 [ISOEUGENOL]
IC50 [1]: Not Active
Ki [1]: Not Active
